Measured values reported in ChEMBL document CHEMBL1614632, “Trend analysis of a database of intravenous pharmacokinetic parameters in humans for 670 drug compounds” (Drug Metab Dispos, 2008).
Bridge positions count the residues as written; N and C are the ends. Square brackets hold non-standard residues; d marks the D form. Peptide text beside a SMILES is read from it. hArg = N=C(N)NCCCC[C@H](N)C(=O)O; Mpa = O=C(O)CCS

How the values were obtained:
[1] = clinical; conditions: human, in vivo, iv
[2] = clinical; conditions: human, in vivo, iv, Vdss
[3] = clinical; conditions: human, in vivo, iv, t1/2
[4] = clinical; conditions: human, in vivo, iv, CL
[5] = clinical; conditions: human, in vivo, iv; remark: listed apart in the source

Structure (SMILES)	fraction unbound [1]	Vd [2]	half-life [3]	clearance [4]	MRT [5]
O=C(O)c1cc(-c2ccc(F)cc2F)ccc1O [DIFLUNISAL]	0.0016	0.097 L/kg	10 h	0.006 L/h/kg	14 h
CCCC(=O)N1CCCN(c2nc(N)c3cc(OC)c(OC)cc3n2)CC1 [BUNAZOSIN]	0.06	0.72 L/kg	2 h	0.288 L/h/kg	2.5 h
O=C(NC1CCN(CCc2c[nH]c3ccccc23)CC1)c1ccccc1 [INDORAMIN]	0.15	4.9 L/kg	4.3 h	1.2 L/h/kg	4.1 h
CCn1cc(C(=O)O)c(=O)c2cc(F)c(N3CCNCC3)nc21 [ENOXACIN]	0.8	2 L/kg	5.1 h	0.324 L/h/kg	6.2 h
Nc1nc(NC2CC2)c2ncn([C@H]3C=C[C@@H](CO)C3)c2n1 [ABACAVIR]	0.5	0.84 L/kg	1 h	0.78 L/h/kg	1.1 h
Nc1nc(/C(=N/O)C(=O)N[C@@H]2C(=O)N3C(C(=O)O)=C(/C=C4\CCN([C@@H]5CCNC5)C4=O)CS[C@H]23)ns1 [CEFTOBIPROLE]	0.62	0.27 L/kg	3.3 h	0.09 L/h/kg	3 h
Nc1nc(F)nc2c1ncn2[C@@H]1O[C@H](CO)[C@@H](O)[C@@H]1O [FLUDARABINE]	0.76	2.2 L/kg	11 h	0.192 L/h/kg	12 h
Nc1nc(N)c2nc(-c3ccccc3)c(N)nc2n1	0.42	13 L/kg	4.3 h	3.78 L/h/kg	3.4 h
N=C(N)NCCCC[C@@H]1NC(=O)CCSSC[C@@H](C(N)=O)NC(=O)[C@@H]2CCCN2C(=O)[C@H](Cc2c[nH]c3ccccc23)NC(=O)[C@H](CC(=O)O)NC(=O)CNC1=O [EPTIFIBATIDE] ([Mpa][hArg]GDWPC-NH2; disulfide 1-7)	0.75	0.17 L/kg	4.2 h	0.072 L/h/kg	2.4 h
Nc1c2c(nc3ccccc13)CCCC2 [TACRINE]	0.25	11 L/kg	3.3 h	3.36 L/h/kg	3.3 h
CNC1(c2ccccc2Cl)CCCCC1=O (stereo not given) [KETAMINE]	0.47	2.9 L/kg	2.8 h	1.14 L/h/kg	2.5 h
Fc1ccc([C@@H]2CCNC[C@H]2COc2ccc3c(c2)OCO3)cc1 [PAROXETINE]	0.06	18 L/kg	13 h	1.08 L/h/kg	17 h
NC(N)=Nc1nc(CSCCC(N)=NS(N)(=O)=O)cs1 [FAMOTIDINE]	0.84	1.2 L/kg	2.8 h	0.396 L/h/kg	3 h
CN(C)[C@@H]1C(O)=C(C(=O)NCN2CCCC2)C(=O)[C@@]2(O)C(O)=C3C(=O)c4c(O)cccc4[C@@](C)(O)[C@H]3C[C@@H]12 [ROLITETRACYCLINE]	0.5	0.54 L/kg	8.8 h	0.0582 L/h/kg	9.3 h
O=C1c2c(O)ccc(O)c2C(=O)c2c(NCCNCCO)ccc(NCCNCCO)c21 [MITOXANTRONE]	0.25	12 L/kg	53 h	0.474 L/h/kg	25 h
NCc1ccccc1CC(=O)N[C@@H]1C(=O)N2C(C(=O)O)=C(CSc3nnnn3CC(=O)O)CS[C@H]12 [CEFORANIDE]	0.19	0.17 L/kg	3 h	0.0396 L/h/kg	4.3 h

Structure (SMILES)	fraction unbound [1]	Vd [2]	half-life [3]	clearance [4]	MRT [5]
Cc1cccc(N2CC(CO)OC2=O)c1 (stereo not given) [TOLOXATONE]	0.49	1.5 L/kg	1.6 h	0.66 L/h/kg	2.3 h
CC(=O)Oc1ccccc1C(=O)O [ASPIRIN]	0.68	0.22 L/kg	0.26 h	0.72 L/h/kg	0.3 h
C[C@@H](O)[C@H]1C(=O)N2C(C(=O)O)=C(S[C@H]3C[C@@H](C(=O)N4CC[C@H](NC(=O)CNC(=N)N)C4)N(C)C3)[C@H](C)[C@H]12 [TOMOPENEM]	0.91	0.23 L/kg	1.7 h	0.114 L/h/kg	2 h
Cn1nnnc1SCC1=C(C(=O)O)N2C(=O)[C@@H](NC(=O)[C@H](O)c3ccccc3)[C@H]2SC1 [CEFAMANDOLE]	0.25	0.16 L/kg	0.75 h	0.216 L/h/kg	0.75 h
CCC(=O)O[C@](Cc1ccccc1)(c1ccccc1)[C@H](C)CN(C)C [PROPOXYPHENE]	0.24	12 L/kg	18 h	0.9 L/h/kg	13.3 h
COC(=O)C1=C(C)NC(C)=C(C(=O)OC(C)C)C1c1cccc2nonc12 (stereo not given) [ISRADIPINE]	0.04	1.5 L/kg	3.3 h	1.56 L/h/kg	1 h
NCCCCCC(=O)O [AMINOCAPROIC ACID]	0.92	0.39 L/kg	4.9 h	0.15 L/h/kg	2.6 h
C[C@@H](CN1CC(=O)NC(=O)C1)N1CC(=O)NC(=O)C1 [DEXRAZOXANE]	1	0.55 L/kg	2.5 h	0.186 L/h/kg	3 h
COc1cc(NS(C)(=O)=O)ccc1Nc1c2ccccc2nc2ccccc12 [AMSACRINE]	0.029	1.6 L/kg	4.7 h	0.258 L/h/kg	6.2 h
CN(C)c1cc(NC(=O)CNC(C)(C)C)c(O)c2c1C[C@H]1C[C@H]3[C@H](N(C)C)C(O)=C(C(N)=O)C(=O)[C@@]3(O)C(O)=C1C2=O [TIGECYCLINE]	0.2	12 L/kg	48 h	0.228 L/h/kg	53 h
COc1ccc(C[C@@H]2c3cc(OC)c(OC)cc3CC[N@+]2(C)CCC(=O)OCCCCCOC(=O)CC[N@@+]2(C)CCc3cc(OC)c(OC)cc3[C@H]2Cc2ccc(OC)c(OC)c2)cc1OC	0.62	0.14 L/kg	0.42 h	0.324 L/h/kg	0.43 h
CC(=O)O[C@H]1C(=O)[C@@]2(C)[C@H]([C@H](OC(=O)c3ccccc3)[C@]3(O)C[C@H](OC(=O)[C@H](O)[C@@H](NC(=O)c4ccccc4)c4ccccc4)C(C)=C1C3(C)C)[C@]1(OC(C)=O)CO[C@@H]1C[C@@H]2O [PACLITAXEL]	0.12	3 L/kg	11 h	0.384 L/h/kg	7.8 h
CC1(C)C(/C=C/C=C/C=C/C=C2/N(CCCCS(=O)(=O)[O-])c3ccc4ccccc4c3C2(C)C)=[N+](CCCCS(=O)(=O)[O-])c2ccc3ccccc3c21.[Na+] [INDOCYANINE GREEN]	0.05	0.035 L/kg	0.065 h	0.408 L/h/kg	0.086 h
[H]/N=C(/N)N[C@H]1[C@H](O)[C@@H](O)[C@H](O[C@@H]2O[C@@H](C)[C@](O)(C=O)[C@H]2O[C@@H]2O[C@@H](CO)[C@H](O)[C@@H](O)[C@@H]2NC)[C@@H](N/C(N)=N\[H])[C@@H]1O [STREPTOMYCIN]	0.65	0.34 L/kg	4.3 h	0.0468 L/h/kg	7.3 h
CCN[C@@H](C)Cc1cccc(C(F)(F)F)c1 [DEXFENFLURAMINE]	0.66	11 L/kg	14 h	0.66 L/h/kg	18 h
